# Results: patent US12630528B2, “Amino aryl derivative useful as diacylglycerol acyltransferase 2 inhibitor and use thereof” (LG CHEM, LTD., priority 2019, dated 2026)
# Molecular target: T1, human DGAT2 (Homo sapiens, UniProt Q96PD7)
# T1 construct: FLAG (DYKDDDDK); made in house; host or cells: Sf-21 insect cells (BacPAK baculovirus system); membrane fraction used
# T1 sequence (Q96PD7 1-388): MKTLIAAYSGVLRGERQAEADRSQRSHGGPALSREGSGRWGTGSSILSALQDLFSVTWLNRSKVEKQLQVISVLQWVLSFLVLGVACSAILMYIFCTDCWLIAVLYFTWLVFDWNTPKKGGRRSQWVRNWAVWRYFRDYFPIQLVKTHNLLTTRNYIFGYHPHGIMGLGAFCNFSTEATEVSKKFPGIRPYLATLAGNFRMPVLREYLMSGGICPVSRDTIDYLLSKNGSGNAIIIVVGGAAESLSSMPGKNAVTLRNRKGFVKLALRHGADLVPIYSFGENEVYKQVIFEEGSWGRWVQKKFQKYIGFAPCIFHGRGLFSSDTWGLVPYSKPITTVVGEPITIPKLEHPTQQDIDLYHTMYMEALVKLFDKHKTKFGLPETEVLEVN
# Assay: DGAT2 enzyme activity inhibition, Phospholipid FlashPlate SPA
# Type: biochemical
# Details: recombinant human DGAT2 membrane protein from Sf-21 cells; inhibition of [14C]-TG production; 37° C.
# Description: In order to prepare the pBacPAK9-DGAT2, which is DGAT2 expression vector, the human DGAT2 gene amplified by polymerase chain reaction (PCR) was cloned into the EcoR1 and Xho1 sites of the pBacPAK9 (clonctech) vector. The nucleotide sequence of the primers used in PCR was the forward primer 5′ […] (SEQ. ID. NO: 2). The composition of the reaction solution was to contain 50 ng of cDNA clone (OriGene), 200 μM of dATP, dCTP, dTTP, dGTP, 200 nM of each primer, 1 unit of Tag DNA Polymerase (Toyobo), 1×PCR buffer, and the final volume was adjusted to 20 μl. The reaction conditions were denatured at 95° C. for 5 minutes, followed by 30 times of 94° C. for 20 seconds, 60° C. for 20 seconds, and 72° C. for 90 seconds, followed by further reaction at 72° C. for 7 minutes.
# Recombinant human DGAT2 protein was expressed in Sf-21 cells, which are insect cells, by using the BacPack baculovirus expression system (Clontech). The brief manufacturing process is as follows. First, the pBacPAK9-DGAT2 expression vector was transfected with BacPAK6 virus DNA (Bsu36I digest) into sf21 cells using Bacfectin to prepare a recombinant DGAT2 expressing baculovirus. The thus prepared baculovirus was infected with Sf-21 cells at 10 MOI (multiplicity of infection), and after 72 hours, infected insect cells were collected and membrane proteins were isolated. For membrane protein separation, the cell pellet was dissolved in a sucrose solution containing 250 mM sucrose, 10 mM Tris (pH 7.4), and 1 mM ethylenediamine-tetraacetic acid (EDTA), and then homogenized by using a dounce homogenizer, and the supernatant was taken by centrifuging at 600×g for 15 minutes, and centrifuged at 100,000×g for 1 hour to discard the supernatant, and the remaining pellet was resuspended in 20 mM HEPES buffer (pH 7.4). The prepared DGAT2 overexpressing membrane protein was dispensed in 100 μl and stored at −80° C. until use. Protein concentration was quantified by using the BCA Protein Assay Kit (Thermo Scientific).
# In vitro DGAT2 analysis was performed using a Phospholipid Flash Plate (PerkinElmer) based on the principle of SPA (Scintilation Proximity Assay). First, DGAT2 inhibition compounds serially diluted 5 times from 3 nM to 10 μM (final concentration, 1% DMSO) were mixed in a buffer solution containing 2 μg DGAT2-membrane protein and 20 mM HEPES, 20 mM MgCl2, 1 mg/mL BSA, 50 μM 1,2 sn-oleoyl glycerol (Sigma), put in a 96-well flash plate (FlashPlate) and reacted at 37° C. for 20 minutes, and then 1 μM [14C] ole oil CoA (PerkinElmer, NEC651050UC) was added to be a final volume of 100 μL and further reacted at 37° C. for 15 minutes. After the enzymatic reaction was completed, 100 μL of isopropanol was added, the plate was sealed with a film, and the plate was shaken slowly in a plate shaker. The next day, the amplified scintillation signal (cpm) in Topcounter (Packard) was measured to measure the degree of production of [14C]-labeled triacyl glycerol (TG) as a reaction product. The measured value when the compound was not treated was used as a positive control, and the measured value of the compound treated group was calculated as a relative % to measure the inhibition effect of the compound on TG production.
row,IC50 [nM],Structure (SMILES)
1,5500,"CCOc1ccccc1O[C@@H]1CCCN(c2cncc(Nc3nccc(N4CCC(C(=O)O)CC4)n3)n2)C1 [Example 123, (R)-1-(2-((6-(3-(2-ethoxyphenoxy)piperidin-1-yl)pyrazin-2-yl)amino)pyrimidin-4-yl)piperidine-4-carboxylic Acid]"
2,560,"CCOc1cccnc1O[C@@H]1CCCN(c2cncc(Nc3nccc(-c4cccc(OC(C)(C)C(=O)O)c4)n3)n2)C1 [Example 159, (R)-2-(3-(2-((6-(3-((3-ethoxypyridin-2-yl)oxy)piperidin-1-yl)pyrazin-2-yl)amino)pyrimidin-4-yl)phenoxy)-2-methylpropanoic Acid]"
3,> 10000,"CCOc1ccccc1O[C@@H]1CCCN(c2cncc(Nc3nccc(-c4cccc(C(=O)O)n4)n3)n2)C1 [Example 139, (R)-6-(2-((6-(3-(2-ethoxyphenoxy)piperidin-1-yl)pyrazin-2-yl)amino)pyrimidin-4-yl)picolinic Acid]"
4,670,"CCOc1ccccc1O[C@@H]1CCCN(c2cncc(Nc3nc(-c4cccc(CC(C)(C)C(=O)O)c4)cc(C(F)(F)F)n3)n2)C1 [Example 167, (R)-3-(3-(2-((6-(3-(2-ethoxyphenoxy)piperidin-1-yl)pyrazin-2-yl)amino)-6-(trifluoromethyl)pyrimidin-4-yl)phenyl)-2,2-dimethylpropanoic Acid]"
5,1500,"CCOc1ccccc1O[C@@H]1CCCN(c2cccc(Nc3cccc(-c4cccc(CC(C)(C)C(=O)O)c4)n3)n2)C1 [Example 65, (R)-3-(3-(6-((6-(3-(2-ethoxyphenoxy)piperidin-1-yl)pyridin-2-yl)amino)pyridin-2-yl)phenyl)-2,2-dimethylpropanoic Acid]"
6,1700,"CCOc1ccccc1O[C@@H]1CCCN(c2cncc(Nc3ccc(-c4ccccc4)cn3)n2)C1 [Example 40, (R)-6-(3-(2-ethoxyphenoxy)piperidin-1-yl)-N-(5-phenylpyridin-2-yl)pyrazin-2-amine]"
7,310,"CCOc1ccccc1O[C@@H]1CCCN(c2cncc(Nc3cccc(N4CCC(C(C)(C)C(=O)O)CC4)n3)n2)C1 [Example 58, (R)-2-(1-(6-((6-(3-(2-ethoxyphenoxy)piperidin-1-yl)pyrazin-2-yl)amino)pyridin-2-yl)piperidin-4-yl)-2-methylpropanoic Acid]"
8,6700,"CCOc1ccccc1O[C@@H]1CCCN(c2cncc(Nc3nccc(N4CCC[C@@H](OCC(=O)O)C4)n3)n2)C1 [Example 132, 2-(((R)-1-(2-((6-((R)-3-(2-ethoxyphenoxy)piperidin-1-yl)pyrazin-2-yl)amino)pyrimidin-4-yl)piperidin-3-yl)oxy)acetic Acid]"
9,190,"CCOc1cccnc1O[C@@H]1CCCN(c2cncc(Nc3nc(-c4cccc(CC(C)(C)C(=O)O)c4)ccc3F)n2)C1 [Example 101, (R)-3-(3-(6-((6-(3-((3-ethoxypyridin-2-yl)oxy)piperidin-1-yl)pyrazin-2-yl)amino)-5-fluoropyridin-2-yl)phenyl)-2,2-dimethylpropanoic Acid]"
10,310,"CCOc1ccccc1O[C@@H]1CCCN(c2cncc(Nc3cccc(-c4cccc(OC(C)(C)C(=O)O)c4)n3)n2)C1 [Example 80, (R)-2-(3-(6-((6-(3-(2-ethoxyphenoxy)piperidin-1-yl)pyrazin-2-yl)amino)pyridin-2-yl)phenoxy)-2-methylpropanoic Acid]"
11,340,"CCOc1ccccc1O[C@@H]1CCCN(c2cncc(Nc3nccc(C4CC5CC4CC5C(=O)O)n3)n2)C1 (stereo partly drawn) [Example 124, 5-(2-((6-((R)-3-(2-ethoxyphenoxy)piperidin-1-yl)pyrazin-2-yl)amino)pyrimidin-4-yl)bicyclo[2.2.1]heptane-2-carboxylic Acid]"
12,590,"CCOc1cccnc1O[C@@H]1CCCN(c2cncc(Nc3ccnc(-c4ccc(OC(C)(C)C(=O)O)cc4)n3)n2)C1 [Example 179, (R)-2-(4-(4-((6-(3-((3-ethoxypyridin-2-yl)oxy)piperidin-1-yl)pyrazin-2-yl)amino)pyrimidin-2-yl)phenoxy)-2-methylpropanoic Acid]"
13,3100,"CCOc1ccccc1O[C@@H]1CCCN(c2cccc(Nc3nccc(-c4cccc(CC(C)(C)C(=O)O)c4)n3)n2)C1 [Example 148, (R)-3-(3-(2-((6-(3-(2-ethoxyphenoxy)piperidin-1-yl)pyridin-2-yl)amino)pyrimidin-4-yl)phenyl)-2,2-dimethylpropanoic Acid]"

# The next lines start with the compound.
row,Structure (SMILES),IC50 [nM]
1,"CCOc1ccccc1O[C@@H]1CCCN(c2cncc(Nc3cccc(N4CCCC(C(=O)O)C4)n3)n2)C1 (stereo partly drawn) [Example 54, 1-(6-((6-((R)-3-(2-ethoxyphenoxy)piperidin-1-yl)pyrazin-2-yl)amino)pyridin-2-yl)piperidine-3-carboxylic Acid]",910
2,"CCOc1ccccc1O[C@@H]1CCCN(c2cncc(Nc3cc(-c4ccc(C(C)(C)C(=O)O)cc4)ccn3)n2)C1 [Example 43, (R)-2-(4-(2-((6-(3-(2-ethoxyphenoxy)piperidin-1-yl)pyrazin-2-yl)amino)pyridin-4-yl)phenyl)-2-methylpropanoic Acid]",3100
3,"CCOc1ccccc1O[C@@H]1CCCN(c2cncc(Nc3ccccn3)n2)C1 [Example 31, (R)-6-(3-(2-ethoxyphenoxy)piperidin-1-yl)-N-(pyridin-2-yl)pyrazin-2-amine]",130
4,"CCOc1ccccc1O[C@@H]1CCCN(c2cncc(Nc3cccc(-c4ccc(CC(C)(C)C(=O)O)cc4)c3)n2)C1 [Example 30, (R)-3-(3′-((6-(3-(2-ethoxyphenoxy)piperidin-1-yl)pyrazin-2-yl)amino)-[1,1′-biphenyl]-4-yl)-2,2-dimethylpropanoic Acid]",2400
5,"CCOc1ccccc1O[C@@H]1CCCN(c2cncc(Nc3ccnc(-c4ccc(OC(C)(C)C(=O)O)cc4)n3)n2)C1 [Example 178, (R)-2-(4-(4-((6-(3-(2-ethoxyphenoxy)piperidin-1-yl)pyrazin-2-yl)amino)pyrimidin-2-yl)phenoxy)-2-methylpropanoic Acid]",490
6,"CCOc1cccnc1O[C@@H]1CCCN(c2cncc(Nc3nccc(O[C@H]4CC[C@H](C(=O)O)CC4)n3)n2)C1 [Example 136, (1R,4r)-4-((2-((6-((R)-3-((3-ethoxypyridin-2-yl)oxy)piperidin-1-yl)pyrazin-2-yl)amino)pyrimidin-4-yl)oxy)cyclohexane-1-carboxylic Acid]",300
7,"CCOc1cccnc1O[C@@H]1CCCN(c2cncc(Nc3nc(-c4cccc(OC(C)(C)C(=O)O)c4)ccc3F)n2)C1 [Example 104, (R)-2-(3-(6-((6-(3-((3-ethoxypyridin-2-yl)oxy)piperidin-1-yl)pyrazin-2-yl)amino)-5-fluoropyridin-2-yl)phenoxy)-2-methylpropanoic Acid]",170
8,"CCOc1ccccc1O[C@@H]1CCCN(c2cncc(Nc3cc(-c4ccc(CC(C)(C)C(=O)O)cc4)ccn3)n2)C1 [Example 45, (R)-3-(4-(2-((6-(3-(2-ethoxyphenoxy)piperidin-1-yl)pyrazin-2-yl)amino)pyridin-4-yl)phenyl)-2,2-dimethylpropanoic Acid]",770
9,"CCOc1ccccc1O[C@@H]1CCCN(c2cncc(Nc3nccc(N4CCCC(C(=O)O)C4)n3)n2)C1 (stereo partly drawn) [Example 120, 1-(2-((6-((R)-3-(2-ethoxyphenoxy)piperidin-1-yl)pyrazin-2-yl)amino)pyrimidin-4-yl)piperidine-3-carboxylic Acid]",890
